Results: PubChem BioAssay (NCI)
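Interpolation was linear, between the two tested concentrations surrounding the appropriate level; five concentrations were tested over 48 hours in 96-well plates. TGI: total growth inhibition.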

What was measured:
Test in all cases: NCI tumour cell line growth inhibition, 48 h
[1] = system: 786-0 renal
[2] = system: A498 renal
[3] = system: A549 NSCLC
[4] = system: ACHN renal
[5] = system: BT-549 breast
[6] = system: CAKI-1 renal
[7] = system: CCRF-CEM leukemia
[8] = system: DU-145 prostate
[9] = system: EKVX NSCLC
[10] = system: HCC-2998 colon
[11] = system: HCT-116 colon
[12] = system: HCT-15 colon
[13] = system: HL-60(TB) leukemia
[14] = system: HOP-62 NSCLC
[15] = system: HOP-92 NSCLC
[16] = system: HS 578T breast
[17] = system: HT29 colon
[18] = system: IGROV1 ovarian
[19] = system: K-562 leukemia
[20] = system: KM12 colon
[21] = system: LOX IMVI melanoma
[22] = system: M14 melanoma
[23] = system: MALME-3M melanoma
[24] = system: MCF7 breast
[25] = system: MDA-MB-231 breast
[26] = system: MDA-N
[27] = system: MOLT-4 leukemia
[28] = system: NCI-H226 lung
[29] = system: NCI-H23 lung
[30] = system: NCI-H460 lung
[31] = system: NCI-H522 lung
[32] = system: OVCAR-3 ovarian
[33] = system: OVCAR-4 ovarian
[34] = system: OVCAR-5 ovarian
[35] = system: OVCAR-8 ovarian
[36] = system: PC-3 prostate
[37] = system: RPMI-8226 leukemia
[38] = system: RXF 393 renal
[39] = system: SF-268 CNS
[40] = system: SF-295 CNS
[41] = system: SF-539 CNS
[42] = system: SK-MEL-28 melanoma
[43] = system: SK-MEL-5 melanoma
[44] = system: SN12C renal
[45] = system: SNB-19 CNS
[46] = system: SNB-75 CNS
[47] = system: SR leukemia
[48] = system: SW-620 colon
[49] = system: T-47D breast
[50] = system: TK-10 renal
[51] = system: U251 CNS
[52] = system: UACC-257 melanoma
[53] = system: UO-31 renal
[54] = system: COLO 205 colon
[55] = system: MDA-MB-435
[56] = system: NCI/ADR-RES ovarian
[57] = system: SK-MEL-2 melanoma
[58] = system: SK-OV-3 ovarian
[59] = system: UACC-62 melanoma

Measured: TGI

CC(=O)Oc1ccc2cc(Oc3ccc(Cl)c(Cl)c3)c(=O)oc2c1
41.5 µM: [51]
39.9 µM: [11]
79.2 µM: [50]
35.5 µM: [43]
80.6 µM: [24]
80.8 µM: [9]
94.8 µM: [3]
54.1 µM: [44]
59.1 µM: [21]
50 µM: [32]
94.1 µM: [23]
56.6 µM: [26]
72.6 µM: [4]
46.5 µM: [31]
78.8 µM: [15]
66 µM: [30]
52.4 µM: [1]
53.3 µM: [36]
79.3 µM: [42]
69.6 µM: [19]
51 µM: [53]
53.8 µM: [12]
48.7 µM: [20]
99.3 µM: [49]
65.8 µM: [2]
34.4 µM: [5]
69.5 µM: [35]
46.8 µM: [41]
39.6 µM: [10]
82.9 µM: [28]
65.9 µM: [38]
85.1 µM: [52]
50.6 µM: [14]
58.7 µM: [6]
not listed: [54] | [55] | [56] | [57] | [58] | [59]
> 100 µM: all other assays above

O=C(CCCN1CCC2(CC1)CC(=O)N(N1CCOCC1)C2=O)c1ccc(F)cc1
not listed: [9] | [10] | [15] | [33] | [47]
> 100 µM: all other assays above

CC1=NC2c3c(-c4ccc(Cl)cc4)cn(-c4ccc(C)cc4)c3N=CN2N1 (configuration not stated)
63.3 µM: [15]
38.4 µM: [16]
97.9 µM: [46]
33.3 µM: [33]
not listed: [20] | [27] | [37] | [49]
> 100 µM: all other assays above
